Source: publication PMC9693141 (Molecules, 2022)
Read-outs that look alike come from different tables or passages of the source.

Legend:
[1] = system: L. infantum axenic amastigotes; test: In vitro antileishmanial evaluation on axenic amastigotes (resazurin viability); format: cell-based, Leishmania infantum; conditions: 72 h incubation then resazurin 24 h, triplicate, three independent experiments, read-out: L. infantum Axenic Amastigotes IC50 (µM) ± S.D.
Procedure: Cultures of axenic amastigotes of L. infantum were adapted from. Briefly, axenic amastigotes of L. infantum were obtained from late log promastigotes diluted at 1 × 10^6/mL in M199 complete medium acidified at pH 5.5 and cultured at 37 °C with 5% CO2.
The evaluations of activity on axenic amastigotes were adapted from the protocols previously described. […] Cell viability was then monitored as described above. The activity of the compounds was expressed as IC50, which was determined by nonlinear regression using GraphPad Prism 7.0.

[2] = system: L. infantum intramacrophagic amastigotes; test: In vitro antileishmanial evaluation on intramacrophage amastigotes in RAW264.7 macrophages (Giemsa counting); format: cell-based, Leishmania infantum; conditions: infected RAW264.7 macrophages, 48 h of treatment, amastigotes per macrophage counted, read-out: L. infantum Intramacrophagic Amastigotes IC50 (µM) ± S.D.
Procedure: Promastigotes of Leishmania infantum (MHOM/FR/2008/LEM5700) were cultured in the dark at 26 °C with 5% CO2 in M199 complete medium containing M199 medium supplemented with adenosine (100 µM), hemin (0.5 mg/L), Hepes (40 mM) pH 7.4, and heat-inactivated fetal bovine serum (10%; HIFBS). Cultures of axenic amastigotes of L. infantum were adapted from. Briefly, axenic amastigotes of L. infantum were obtained from late log promastigotes diluted at 1 × 10^6/mL in M199 complete medium acidified at pH 5.5 and cultured at 37 °C with 5% CO2.
(§1) The RAW 264.7 macrophages (ATCC) were cultured at 37 °C with 5% CO2 in DMEM complete medium containing Dulbecco’s Modified Eagle’s Medium (DMEM, Invitrogen, Thermo-Fisher, Villebon-sur-Yvette, France) supplemented with penicillin-streptomycin (100 U/mL; Invitrogen) and heat-inactivated fetal bovine serum (10%; HIFBS).
Concerning the evaluation on intramacrophage amastigotes, the determination of the cytotoxicity as presented above was necessary to use the highest drug concentrations to be studied on the intramacrophage amastigote model. The evaluation on the intracellular form on the parasite was performed as previously described. RAW264.7 macrophages were plated in 16-well Lab-Tek chamber slides (Thermo-Fisher Villebon-sur-Yvette, France) at a density of 2 × 10^4 cells per well and incubated for 24 h at 37 °C with 5% CO2. Axenic amastigotes were differentiated as described above, centrifuged at 2000× g for 10 min, resuspended in DMEM complete medium, and added to each well to reach a 16:1 parasite to macrophage ratio. After 24 h of infection at 37 °C with 5% CO2, extracellular parasites were removed, and DMEM complete medium (100 µL) containing two-fold serial dilutions of the compounds, from 100 µM to 0.049 µM, was added to each well. A positive control treated with 1% DMSO was added to each Lab-tek chamber slide. After 48 h of treatment, the medium was removed and cells were fixed in methanol for 1 min, stained in 10% Giemsa (Merck, Guyancourt, France) for 5 min, and further rinsed in water before observation in phase contrast at the microscope (Olympus CX31; Olympus, Rungis, France). The number of amastigotes was counted by two independent experimenters for a total of 300 macrophages per well and the ratio of amastigotes per macrophage was determined for each condition. This ratio was further compared with the one of the positive controls, considered as 100%, to determine a percentage of inhibition (% I), as follows: % I = 100 − [(ratio of amastigotes per macrophage in treated cells/ratio of amastigotes per macrophages in untreated cells) × 100]. The activity of the compounds was expressed as IC50, which was determined by nonlinear regression using GraphPad Prism 7.0. […] In vitro antileishmanial evaluations were performed in triplicate in three independent experiments.

RAW 264.7 macrophages = test: In vitro cytotoxicity on RAW 264.7 macrophages (resazurin); format: cell-based; conditions: 48 h of incubation, read-out: Cytotoxicity on RAW 264.7 CC50 (µM) ± S.D.
Procedure: as §1
Cells were plated in 96-well microplates at a density of 2 × 10^4 cells per well. […] In living cells, resazurin is reduced in resorufin, and this conversion is monitored by measuring OD570nm (resorufin) and OD600nm (resazurin; multimode microplate reader Spark®, Tecan, Lyon, France). […] In vitro cytotoxicity assays were performed in triplicate in three independent experiments.

Compound | IC50 ([1]; Leishmania infantum) [µM] | IC50 ([2]; Leishmania infantum) [µM] | IC50 [1] [µM] | CC50 (RAW 264.7 macrophages) [µM] | IC50 [2] [µM]
CC(C)=CCCC1(C)C=Cc2c(c3ccccc3n(CCCCC(=O)O)c2=O)O1 (stereo not shown) [Compound 15l, 5-(2-Methyl-2-(4-methylpent-3-en-1-yl)-5-oxo-2H-pyrano [3,2-c]quinolin-6(5H)-yl)pentanoic acid] | 16.4 ± 1.7 | > 100 | – | – | –
Cn1c(=O)c2c(c3ccccc31)OC1(C)CCCC(C)(C)C1=C2 (stereo not shown) [Compound 11, 5,8,8,11a-Tetramethyl-5,8,9,10,11,11a-hexahydro-6H-chromeno [3,2-c]quinolin-6-one] | > 100 | 14.7 ± 1.6 | – | – | –
Cn1c(=O)c2c(c3ccccc31)OC(C)(C)C1CCC(C)(O)C(Cl)C21 (stereo not shown) [Compound 3, Chloroaustralasine A] | 8 | > 50 | 8.1 ± 1.4 | – | –
CC(C)=CCCC1(C)C=Cc2c(c3ccccc3n(S(=O)(=O)c3ccccc3)c2=O)O1 (stereo not shown) [Compound 15h, 2-Methyl-2-(4-methylpent-3-en-1-yl)-6-(phenylsulfonyl)-2,6-dihydro-5H-pyrano [3,2-c]quinolin-5-one] | > 100 | > 100 | – | – | –
Cn1c(=O)c2c(c3ccccc31)OC1(C)CCC3C1C2C3(C)C (stereo not shown) [Compound 12, 1,1,3a,9-Tetramethyl-1,1a,1a1,2,3,3a,9,10b-octahydro-10H-4-oxa-9-azacyclobuta [7,1]indeno [5,6-a]naphthalen-10-one] | 42.6 ± 2.1 | > 50 | – | – | –
CC1(C)CCCC2(C)Oc3c(c(=O)n(Cc4ccccc4)c4ccccc34)C=C12 (stereo not shown) [Compound 16a, 5-Benzyl-8,8,11a-trimethyl-5,8,9,10,11,11a-hexahydro-6H-chromeno [3,2-c]quinolin-6-one] | 7 ± 2.1 | > 25 | – | – | –
CC(C)=CCCC1(C)C=Cc2c(c3ccccc3n(Cc3ccccc3)c2=O)O1 (stereo not shown) [Compound 15a, 6-Benzyl-2-methyl-2-(4-methylpent-3-en-1-yl)-2,6-dihydro-5H-pyrano [3,2-c]quinolin-5-one] | 16.8 ± 1.8 | 23.7 ± 6.5 | – | – | –
CCCCCCCCCCCCCCCCOP(=O)([O-])OCC[N+](C)(C)C [Miltefosine, reference compound] | 1 ± 0.3 | 6.7 ± 1.7 | – | – | –
CCCCCn1c(=O)c2c(c3ccccc31)OC(C)(CCC=C(C)C)C=C2 (stereo not shown) [Compound 15g, 2-Methyl-2-(4-methylpent-3-en-1-yl)-6-pentyl-2,6-dihydro-5H-pyrano [3,2-c]quinolin-5-one] | 82.7 ± 6.5 | 29.5 ± 9.9 | – | > 100 | –
CC(C)=CCCC1(C)C=Cc2c(c3ccccc3n(C(=O)Oc3ccccc3)c2=O)O1 (stereo not shown) [Compound 15i, Phenyl 2-methyl-2-(4-methylpent-3-en-1-yl)-5-oxo-2H-pyrano [3,2-c]quinoline-6(5H)-carboxylate] | 12.9 ± 3.2 | > 15 | – | – | –
CC1(O)CCC2C(c3c(c4ccccc4[nH]c3=O)OC2(C)C)C1Cl (stereo not shown) [Compound 4] | 18.6 ± 2.5 | > 6.25 | – | – | –
COc1cccc(Cn2c(=O)c3c(c4ccccc42)OC(C)(CCC=C(C)C)C=C3)c1 (stereo not shown) [Compound 15b, 6-(3-Methoxybenzyl)-2-methyl-2-(4-methylpent-3-en-1-yl)-2,6-dihydro-5H-pyrano [3,2-c]quinolin-5-one] | 15 ± 1.7 | > 25 | – | – | –
COCCn1c(=O)c2c(c3ccccc31)OC(C)(CCC=C(C)C)C=C2 (stereo not shown) [Compound 15d, 6-(2-Methoxyethyl)-2-methyl-2-(4-methylpent-3-en-1-yl)-2,6-dihydro-5H-pyrano [3,2-c]quinolin-5-one] | 17.8 ± 2.3 | > 25 | – | – | –
Zanthosimuline [Compound 7] | – | – | 29.1 ± 1 | – | > 100
CC(C)=CCCC1(C)C=Cc2c(c3ccccc3n(C(=O)OC(C)(C)C)c2=O)O1 (stereo not shown) [Compound 15j, tert-Butyl 2-methyl-2-(4-methylpent-3-en-1-yl)-5-oxo-2H-pyrano [3,2-c]quinoline-6(5H)-carboxylate] | 9.1 ± 0.4 | > 25 | – | – | –
COC(=O)CCCCn1c(=O)c2c(c3ccccc31)OC(C)(CCC=C(C)C)C=C2 (stereo not shown) [Compound 15k, Methyl 5-(2-methyl-2-(4-methylpent-3-en-1-yl)-5-oxo-2H-pyrano [3,2-c]quinolin-6(5H)-yl)pentanoate] | 14.6 ± 2.1 | 19 ± 2.2 | – | – | –
CC(C)=CCCC1(C)C=Cc2c(c3ccccc3n(Cc3ccccn3)c2=O)O1 (stereo not shown) [Compound 15c, 2-Methyl-2-(4-methylpent-3-en-1-yl)-6-(pyridin-2-ylmethyl)-2,6-dihydro-5H-pyrano [3,2-c]quinolin-5-one] | 14.2 ± 4.3 | > 25 | – | – | –
CC(C)=CCCC1(C)C=Cc2c(c3ccccc3[nH]c2=O)O1 (stereo not shown) [Compound 14, 2-Methyl-2-(4-methylpent-3-en-1-yl)-2,6-dihydro-5H-pyrano [3,2-c]quinolin-5-one] | 15.6 ± 1.8 | > 100 | – | – | –
CC(C)=CCCC1(C)C=Cc2c(c3ccccc3n(CCc3ccccc3)c2=O)O1 (stereo not shown) [Compound 15f, 2-Methyl-2-(4-methylpent-3-en-1-yl)-6-phenethyl-2,6-dihydro-5H-pyrano [3,2-c]quinolin-5-one] | 9.8 ± 2.9 | > 50 | – | – | –
